Where a name gives a salt, the structure may show the parent alone.
Structure (SMILES)	melting point
O=S(=O)(C[C@@H]1CCC2CN(c3ncccn3)CCN2C1)c1ccc(F)cc1 (stereo partly drawn) [Example 42, (7RS,9aSR)-7-(4-Fluorophenylsulfonyl)methyl-2-(pyrmidin-2-yl)-2,3,4,6,7,8,9,9a-octahydro-1H-pyrido[1,2-a]pyrazine]	155 to 157 °C
Fc1ccc(OC[C@@H]2CCC3CN(c4ccccc4)CCN3C2)cc1 (some centres unmarked) [Example 26]	247 to 252 °C
Fc1ccc(SC[C@@H]2CCC3CN(c4ncccn4)CCN3C2)cc1 (some centres unmarked) [Example 41]	99 to 101 °C
Fc1ccc(OC[C@@H]2CC[C@H]3CN(c4ccc(Cl)nn4)CCN3C2)cc1 [Example 20, (7R,9aS)-7-(4-Fluorophenoxy)methyl-2-(6-chloropyridazin-3-yl)-2,3,4,6,7,8,9,9a-octahydro-1H-pyrido[1,2-a]pyrazine]	265 to 270 °C
N#Cc1cc(F)ccc1N1CCN2C[C@H](COc3ccc(F)cc3)CC[C@H]2C1 (racemic) [Example 23, (7RS,9aSR)-7-(4-Fluorophenoxy)methyl-2-(2-cyano-4-fluorophenyl)-2,3,4,6,7,8,9,9a-octahydro-1H-pyrido[1,2-a]pyrazine]	235 to 240 °C
O=c1oc2ccccc2n1C[C@@H]1CC[C@H]2CN(c3ccc(Cl)cn3)CCN2C1 [Example 39, 3-[(7R,9aS)-2-(5-Chloropyridin-2-yl)-2,3,4,6,7,8,9,9a-octahydro-1H-pyrido[1,2-a]-pyrazin-7-ylmethyl]-3H-benzoxazol-2-one]	247 to 248 °C
Fc1ccc(OC[C@@H]2CC[C@H]3CN(c4cccnn4)CCN3C2)cc1 (racemic) (as salt: sulfate) [Example 35, (7RS,9aSR)-7-(4-Fluorophenoxy)methyl-2-(pyridazin-3-yl)-2,3,4,6,7,8,9,9a-octahydro-1H-pyrido[1,2-a]pyrazine]	246 to 250 °C
Fc1ccc(OC[C@@H]2CC[C@H]3CN(c4ncc(Cl)cc4Cl)CCN3C2)cc1 (racemic) [Example 15, (7RS,9aSR)-7-(4-Fluorophenoxy)methyl-2-(3,5-dichloropyridin-2-yl)-2,3,4,6,7,8,9,9a-octahydro-1H-pyrido[1,2-a]pyrazine]	247 to 248 °C
Fc1ccc(OC[C@@H]2CC[C@H]3CN(c4ccccn4)CCN3C2)cc1 [Example 18, (7R,9aS)-7-(4-Fluorophenoxy)methyl-2-(pyridin-2-yl)-2,3,4,6,7,8,9,9a-octahydro-1H-pyrido[1,2-a]pyrazine]	261 to 263 °C
CSc1nc(N2CCN3CC(COc4ccc(F)cc4)CCC3C2)ncc1F (stereo not drawn) [Example 6, (7RS,9aSR)-7-(4-Fluorophenoxy)methyl-2-(5-fluoro-4-thiomethyl-pyrimidin-2-yl)-2,3,4,6,7,8,9,9a-octahydro-1H-pyrido[1,2-a]pyrazine]	201 to 210 °C
c1ccc(O[C@@H]2CC[C@H]3CN(c4ncccn4)CCN3C2)cc1 (racemic)	147 to 148 °C
Nc1cc(F)ccc1N1CCN2C[C@H](COc3ccc(F)cc3)CC[C@H]2C1 [Example 24, (7R,9aS)-7-(4-Fluorophenoxy)methyl-2-(2-amino-4-fluorophenyl)-2,3,4,6,7,8,9,9a-octahydro-1H-pyrido[1,2-a]pyrazine]	144 to 149 °C
Fc1cnc(N2CCN3C[C@H](Cn4ccc5cc(F)ccc54)CC[C@H]3C2)nc1 [Example 43, (7R,9aS)-7-(5-Fluoroindol-1-yl)methyl-2-(5-fluoropyrimidin-2-yl)-2,3,4,6,7,8,9,9a-octahydro-1H-pyrido[1,2-a]pyrazine]	180 to 182 °C
Fc1ccc(OC[C@@H]2CC[C@H]3CN(c4ccc(F)cn4)CCN3C2)cc1 (racemic) [Example 28, (7RS,9aSR)-7-(4-Fluorophenoxy)methyl-2,3,4,6,7,8,9,9a-octahydro-2-(5-fluoropyridin-2-yl)-1H-pyrido[1,2-a]pyrazine]	214 to 215 °C
O=C1Cc2ccccc2N1C[C@@H]1CC[C@H]2CN(c3ncccn3)CCN2C1 [Example 44, 1-[(7R,9aS)-2-(Pyrimidin-2-yl)-2,3,4,6,7,8,9,9a-octahydro-1H-pyrido[1,2-a]pyrazin-7-ylmethyl]-1,3-dihydro-indol-2-one]	174 to 176 °C
Fc1ccc2c(ccn2C[C@@H]2CC[C@H]3CN(c4ncccn4)CCN3C2)c1 (racemic) [Example 40, (7RS,9aSR)-7-(5-Fluoroindol-1-ylmethyl)-2-(pyrimidin-2-yl)-2,3,4,6,7,8,9,9a-octahydro-1H-pyrido[1,2-a]pyrazine]	70 to 72 °C
COc1cccc(N2CCN3C[C@H](COc4ccc(F)cc4)CCC3C2)n1 (stereo partly drawn) [Example 27, (7RS,9aSR)-7-(4-Fluorophenoxy)methyl-2-(6-methoxypyridin-2-yl)-2,3,4,6,7,8,9,9a octahydro-1H-pyrido[1,2-a]pyrazine]	228 to 230 °C

Results, then the compound that gave them:

melting point	Structure (SMILES)
> 265 °C (dec.)	c1ccc(OC[C@@H]2CC[C@H]3CN(c4ccncn4)CCN3C2)cc1 (racemic)
227 to 233 °C (dec.)	Clc1nccc(N2CCN3C[C@H](COc4ccccc4)CC[C@H]3C2)n1 (racemic) [Example 29, (7RS,9aSR)-7-Phenoxymethyl-2-(2-chloropyrimidin-4-yl)-2,3,4,6,7,8,9,9a-octahydro-1H-pyrido[1,2-a]pyrazine]
217 to 219 °C	c1ccc(OC[C@@H]2CC[C@H]3CN(c4cnccn4)CCN3C2)cc1 (racemic) [Example 30, (7RS,9aSR)-7-Phenoxymethyl-2-(pyrazin-2-yl)-2,3,4,6,7,8,9,9a-octahydro-1H-pyrido[1,2-a]pyrazine]
192 to 198 °C	CSc1nc(N2CCN3CC(COc4ccccc4)CCC3C2)ncc1F (stereo not drawn) [Example 4, (7RS,9aSR)-7-Phenoxymethyl-2-(5-fluoro-4-thiomethylpyrimidin-2-yl)-2,3,4,6,7,8,9,9a-octahydro-1H-pyrido[1,2-a]pyrazine]
250 to 252 °C	Fc1cnc(N2CCN3C[C@H](CCc4ccccc4)CC[C@H]3C2)nc1 [Example 12, (7R,9aS)-7-(2-Phenyl)ethyl-2-(5-fluoropyrimidin-2-yl)-2,3,4,6,7,8,9,9a-octahydro-1H-pyrido[1,2-a]pyrazine]
247 °C (dec.)	Clc1cncc(N2CCN3C[C@H](COc4ccccc4)CC[C@H]3C2)n1 (racemic) [Example 31, (7RS,9aSR)-7-Phenoxymethyl-2-(6-chloropyrazin-2-yl)-2,3,4,6,7,8,9,9a-octahydro-1H-pyrido[1,2-a]pyrazine]
218 to 224 °C	Clc1ccc(N2CCN3C[C@H](COc4ccccc4)CC[C@H]3C2)nc1 (racemic) [Example 17, (7RS,9aSR)-7-Phenoxymethyl-2-(5-chloropyridin-2-yl)-2,3,4,6,7,8,9,9a-octahydro-1H-pyrido[1,2-a]pyrazine]
> 265 °C (dec.)	Clc1ccc(N2CCN3C[C@H](COc4ccccc4)CC[C@H]3C2)nn1 (racemic) [Example 33, (7RS,9aSR)-7-Phenoxymethyl-2-(6-chloropyridazin-3-yl)-2,3,4,6,7,8,9,9a-octahydro-1H-pyrido[1,2-a]pyrazine]
215 to 217 °C	Fc1cnc(N2CCN3C[C@H](COc4ccccc4)CC[C@H]3C2)nc1 (racemic) [Example 5, (7RS,9aSR)-7-Phenoxymethyl-2-(5-fluoropyrimidin-2-yl)-2,3,4,6,7,8,9,9a-octahydro-1H-pyrido[1,2-a]pyrazine]

From patent US7220753B2, “2,7-substituted octahydro-1H-pyrido[1,2-a]pyrazine derivatives as ligands for serotonin receptors” (Pfizer Inc., priority 1994, dated 2007)
